Results: US11370774B2, “Substituted benzofuran, benzopyrrole, benzothiophene, and structurally related complement inhibitors” (BioCryst Pharmaceuticals, Inc., priority 2018, dated 2022)

Biological target: Factor D (Homo sapiens (Human), UniProt P00746)
Assay: Factor D esterolytic assay (Z-Lys-SBzl substrate, DTNB, 405 nm)
Assay type: biochemical
Details: Z-Lys-SBzl 1.29 mM, pH 7.5, 10% DMSO, tested a minimum of three times, read-out: Measured Ki (IC50) Value for Compounds: IC50
How it was run: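 Thioester hydrolysis (Z-Lys-SBzl, 1.29 mM) by human Factor D ([…]) detected through DTNB color at 405 nm over 600 sec, minus 690 nm background. Buffer: 100 mM HEPES pH 7.5, 500 mM NaCl, 10% DMSO; optional room-temperature preincubation before substrate. IC50 derived from percent rate inhibition; at least three runs.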

Sequence of Factor D (P00746 26-253): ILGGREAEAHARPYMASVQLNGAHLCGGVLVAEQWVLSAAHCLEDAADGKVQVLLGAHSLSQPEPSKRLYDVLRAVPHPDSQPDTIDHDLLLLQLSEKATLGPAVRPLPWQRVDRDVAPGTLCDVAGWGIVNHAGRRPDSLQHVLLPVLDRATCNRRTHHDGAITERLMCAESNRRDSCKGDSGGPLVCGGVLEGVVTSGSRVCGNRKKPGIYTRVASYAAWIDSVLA

IC50, < 1 µM:
NCc1cccc(-c2cc(COc3c(CC(=O)O)cccc3-c3ccoc3)cc3ccoc23)c1 [Compound 468h, 2-(2-((7-(3-(aminomethyl)phenyl)benzofuran-5-yl)methoxy)-3-(furan-3-yl)phenyl)acetic acid]
CCc1ccc(CC(=O)O)c(OCc2cc(-c3cccc(CN)c3)c3oc(F)cc3c2)c1 [Compound 469g, 2-(2-((7-(3-(aminomethyl)phenyl)-2-fluorobenzofuran-5-yl)methoxy)-4-ethylphenyl)acetic acid]
CCc1ccc(CC(=O)O)c(OCc2cc(-c3cccc(CN)c3F)c3oc(F)cc3c2)c1 [Compound 470b, 2-(2-((7-(3-(aminomethyl)-2-fluorophenyl)-2-fluorobenzofuran-5-yl)methoxy)-4-ethylphenyl)acetic acid]
COCc1cc2cc(COc3cc(OC)ccc3CC(=O)O)cc(-c3ccnc(CN)c3F)c2o1 [Compound 471d, 2-(2-((7-(2-(aminomethyl)-3-fluoropyridin-4-yl)-2-(methoxymethyl)benzofuran-5-yl)methoxy)-4-methoxyphenyl)acetic acid]
COCc1cc2cc(COc3cc(OC)ccc3CC(=O)O)cc(-c3ccnc(CN)c3)c2o1 [Compound 472b, 2-(2-((7-(2-(aminomethyl)pyridin-4-yl)-2-(methoxymethyl)benzofuran-5-yl)methoxy)-4-methoxyphenyl)acetic acid]
NCc1cccc(-c2c(F)c(COc3ccccc3CC(=O)O)cc3ccoc23)c1 [Compound 473e, 2-(2-((7-(3-(aminomethyl)phenyl)-6-fluorobenzofuran-5-yl)methoxy)phenyl)acetic acid]
CC(C)n1ccc2c(-c3cccc(CN)c3)cc(COc3ccc(F)cc3CC(=O)O)cc21 [Compound 474c, 2-(2-((4-(3-(aminomethyl)phenyl)-1-isopropyl-1H-indol-6-yl)methoxy)-5-fluorophenyl)acetic acid]
COc1ccc(OCc2cc(-c3cccc(CN)c3F)c3ccn(C(C)C)c3c2)c(CC(=O)O)c1 [Compound 475g, 2-(2-((4-(3-(aminomethyl)-2-fluorophenyl)-1-isopropyl-1H-indol-6-yl)methoxy)-5-methoxyphenyl)acetic acid]
COc1cccc(CC(=O)O)c1OCc1cc(-c2cccc(CN)c2)c2occc2c1 [Compound 476f, 2-(2-((7-(3-(aminomethyl)phenyl)benzofuran-5-yl)methoxy)-3-methoxyphenyl)acetic acid]
COCc1cc2cc(COc3cc(F)ccc3CC(=O)O)cc(-c3cccc(CN)c3)c2o1 [Compound 477c, 2-(2-((7-(3-(aminomethyl)phenyl)-2-(methoxymethyl)benzofuran-5-yl)methoxy)-4-fluorophenyl)acetic acid]
COCc1cc2cc(COc3cc(F)ccc3CC(=O)O)cc(-c3cccc(CN)c3F)c2o1 [Compound 478b, 2-(2-((7-(3-(aminomethyl)-2-fluorophenyl)-2-(methoxymethyl)benzofuran-5-yl)methoxy)-4-fluorophenyl)acetic acid]
CC(=O)c1ccc(CC(=O)O)c(OCc2cc(-c3cccc(CN)c3F)c3occc3c2)c1 [Compound 479d, 2-(4-acetyl-2-((7-(3-(aminomethyl)-2-fluorophenyl)benzofuran-5-yl)methoxy)phenyl)acetic acid]
COc1ccc(CC(=O)O)c(OCc2cc(-c3cccc(CN)c3)c3oc(F)cc3c2)c1 [Compound 480c, 2-(2-((7-(3-(aminomethyl)phenyl)-2-fluorobenzofuran-5-yl)methoxy)-4-methoxyphenyl)acetic acid]
COc1ccc(CC(=O)O)c(OCc2cc(-c3cccc(CN)c3F)c3oc(F)cc3c2)c1 [Compound 481b, 2-(2-((7-(3-(aminomethyl)-2-fluorophenyl)-2-fluorobenzofuran-5-yl)methoxy)-4-methoxyphenyl)acetic acid]
COc1ccc(CC(=O)O)c(OCc2cc(-c3ccnc(CN)c3)c3occc3c2)c1 [Compound 482b, 2-(2-((7-(2-(aminomethyl)pyridin-4-yl)benzofuran-5-yl)methoxy)-4-methoxyphenyl)acetic acid]
COc1ccc(CC(=O)O)c(OCc2cc(-c3ccnc(CN)c3F)c3oc(F)cc3c2)c1 [Compound 483c, 2-(2-((7-(2-(aminomethyl)-3-fluoropyridin-4-yl)-2-fluorobenzofuran-5-yl)methoxy)-4-methoxyphenyl)acetic acid]
NCc1cccc(-c2cc(COc3cc(F)ccc3CC(=O)O)c(F)c3ccoc23)c1 [Compound 484c, 2-(2-((7-(3-(aminomethyl)phenyl)-4-fluorobenzofuran-5-yl)methoxy)-4-fluorophenyl)acetic acid]
NCc1cccc(-c2cc(COc3cc(F)ccc3CC(=O)O)c(F)c3ccoc23)c1F [Compound 485b, 2-(2-((7-(3-(aminomethyl)-2-fluorophenyl)-4-fluorobenzofuran-5-yl)methoxy)-4-fluorophenyl)acetic acid]
NCc1cccc(-c2cc(COc3cc(F)ccc3CC(=O)O)cc3c(C(F)(F)F)coc23)c1 [Compound 486c, 2-(2-((7-(3-(aminomethyl)phenyl)-3-(trifluoromethyl)benzofuran-5-yl)methoxy)-4-fluorophenyl)acetic acid]
NCc1cccc(-c2cc(COc3cc(F)ccc3CC(=O)O)cc3c(C(F)(F)F)coc23)c1F [Compound 487b, 2-(2-((7-(3-(aminomethyl)-2-fluorophenyl)-3-(trifluoromethyl)benzofuran-5-yl)methoxy)-4-fluorophenyl)acetic acid]
COc1ccc(CC(=O)O)c(OCc2cc(-c3cccc(CN)c3)c3occ(C(F)(F)F)c3c2)c1 [Compound 488c, 2-(2-((7-(3-(aminomethyl)phenyl)-3-(trifluoromethyl)benzofuran-5-yl)methoxy)-4-methoxyphenyl)acetic acid]
COc1ccc(CC(=O)O)c(OCc2cc(-c3cccc(CN)c3F)c3occ(C(F)(F)F)c3c2)c1 [Compound 489b, 2-(2-((7-(3-(aminomethyl)-2-fluorophenyl)-3-(trifluoromethyl)benzofuran-5-yl)methoxy)-4-methoxyphenyl)acetic acid]
NCc1nccc(-c2cc(COc3cc(F)ccc3CC(=O)O)cc3c(C(F)(F)F)coc23)c1F [Compound 490c, 2-(2-((7-(2-(aminomethyl)-3-fluoropyridin-4-yl)-3-(trifluoromethyl)benzofuran-5-yl)methoxy)-4-fluorophenyl)acetic acid]
NCc1cc(-c2cc(COc3cc(F)ccc3CC(=O)O)cc3c(C(F)(F)F)coc23)ccn1 [Compound 491b, 2-(2-((7-(2-(aminomethyl)pyridin-4-yl)-3-(trifluoromethyl)benzofuran-5-yl)methoxy)-4-fluorophenyl)acetic acid]
COc1ccc(CC(=O)O)c(OCc2cc(-c3ccnc(CN)c3)c3oc(F)cc3c2)c1 [Compound 492b, 2-(2-((7-(2-(aminomethyl)pyridin-4-yl)-2-fluorobenzofuran-5-yl)methoxy)-4-methoxyphenyl)acetic acid]
COc1ccc(OCc2cc(-c3cccc(CN)c3)c3ccn(C(C)C)c3c2)c(CC(=O)O)c1 [Compound 493b, 2-(2-((4-(3-(aminomethyl)phenyl)-1-isopropyl-1H-indol-6-yl)methoxy)-5-methoxyphenyl)acetic acid]
CC(C)n1ccc2c(-c3cccc(CN)c3F)cc(COc3ccc(F)cc3CC(=O)O)cc21 [Compound 494b, 2-(2-((4-(3-(aminomethyl)-2-fluorophenyl)-1-isopropyl-1H-indol-6-yl)methoxy)-5-fluorophenyl)acetic acid]
CC(C)n1ccc2c(-c3ccnc(CN)c3F)cc(COc3cc(F)ccc3CC(=O)O)cc21 [Compound 495d, 2-(2-((4-(2-(aminomethyl)-3-fluoropyridin-4-yl)-1-isopropyl-1H-indol-6-yl)methoxy)-4-fluorophenyl)acetic acid]
CC(C)n1ccc2c(-c3ccnc(CN)c3)cc(COc3cc(F)ccc3CC(=O)O)cc21 [Compound 496c, 2-(2-((4-(2-(aminomethyl)pyridin-4-yl)-1-isopropyl-1H-indol-6-yl)methoxy)-4-fluorophenyl)acetic acid]
CC(C)n1ccc2c(-c3ccnc(CN)c3)cc(COc3ccc(F)cc3CC(=O)O)cc21 [Compound 497d, 2-(2-((4-(2-(aminomethyl)pyridin-4-yl)-1-isopropyl-1H-indol-6-yl)methoxy)-5-fluorophenyl)acetic acid]
COc1ccc(CC(=O)O)c(OCc2cc(-c3ccnc(CN)c3F)c3occ(C(F)(F)F)c3c2)c1 [Compound 498c, 2-(2-((7-(2-(aminomethyl)-3-fluoropyridin-4-yl)-3-(trifluoromethyl)benzofuran-5-yl)methoxy)-4-methoxyphenyl)acetic acid]
COc1ccc(CC(=O)O)c(OCc2cc(-c3ccnc(CN)c3)c3occ(C(F)(F)F)c3c2)c1 [Compound 499b, 2-(2-((7-(2-(aminomethyl)pyridin-4-yl)-3-(trifluoromethyl)benzofuran-5-yl)methoxy)-4-methoxyphenyl)acetic acid]
NCc1cccc(-c2cc(COc3ccc(F)cc3CC(=O)O)cc3c(C(F)(F)F)coc23)c1 [Compound 500c, 2-(2-((7-(3-(aminomethyl)phenyl)-3-(trifluoromethyl)benzofuran-5-yl)methoxy)-5-fluorophenyl)acetic acid]
NCc1cccc(-c2cc(COc3ccccc3CC(=O)O)cc3[nH]c(C(F)(F)F)cc23)c1F [Compound 501f, 2-(2-((4-(3-(aminomethyl)-2-fluorophenyl)-2-(trifluoromethyl)-1H-indol-6-yl)methoxy)phenyl)acetic acid]
